Each compound was assayed on Gerbillinae (assay: Inhibitory activity when the NK1 agonist challenge was given 2 hr after dosing at 3 mg/kg, iv). Settings: not given.
Assay type: functional
O=C(NCc1cc(C(F)(F)F)cc(C(F)(F)F)c1)[C@]1(c2ccccc2)CC[C@H](N2CCC(c3ccc(F)cc3)CC2)CC1 showed an inhibition in vivo at 3 mg/kg of 15%.

The compounds below were run on Gerbillinae (assay: Inhibitory dose after 2 hours required to produce blockade of foot-tapping activity induced by central infusion of NK1-agonist GR-73632). Settings: read-out: ID50 (the source's name).
Assay type: functional
CC(C(=O)N[C@]1(c2ccccc2)CC[C@@H](N2CCC(c3ccc(F)cc3)CC2)CC1)c1cc(C(F)(F)F)cc(C(F)(F)F)c1 (mixture of isomers) showed an ED50 of 0.6 mg/kg.

Each compound was assayed on Gerbillinae (assay: Inhibitory dose after 24 hours required to produce blockade of foot-tapping activity induced by central infusion of NK1-agonist GR-73632). Settings: read-out: ID50 (the source's name).
Assay type: functional
Compound CC(C(=O)N[C@]1(c2ccccc2)CC[C@@H](N2CCC(c3ccc(F)cc3)CC2)CC1)c1cc(C(F)(F)F)cc(C(F)(F)F)c1 (mixture of isomers) has an ED50 of 1.8 mg/kg.

These compounds were tested on Gerbillinae (assay: Inhibitory dose required to produce blockade of foot-tapping activity induced by central infusion of NK1-agonist GR-73632). Settings: read-out: ID50 (the source's name).
Assay type: functional
With CC(C(=O)N[C@]1(c2ccccc2)CC[C@@H](N2CCC(c3ccc(F)cc3)CC2)CC1)c1cc(C(F)(F)F)cc(C(F)(F)F)c1 (mixture of isomers) the ED50 was 1.7 mg/kg. Work on O=C(NCc1cc(C(F)(F)F)cc(C(F)(F)F)c1)[C@]1(c2ccccc2)CC[C@H](N2CCC(c3ccc(F)cc3)CC2)CC1 yielded an ED50 of 1.9 mg/kg.

These compounds were tested against T1, Substance-P receptor (Homo sapiens, UniProt P25103) (assay: Tested for inhibitory concentration expressed as displacement of [125I]-labeled substance P from the cloned Tachykinin receptor 1 expressed in CHO cells at dosage of 1000 nM). Settings: not given.
T1 sequence (P25103 whole entry): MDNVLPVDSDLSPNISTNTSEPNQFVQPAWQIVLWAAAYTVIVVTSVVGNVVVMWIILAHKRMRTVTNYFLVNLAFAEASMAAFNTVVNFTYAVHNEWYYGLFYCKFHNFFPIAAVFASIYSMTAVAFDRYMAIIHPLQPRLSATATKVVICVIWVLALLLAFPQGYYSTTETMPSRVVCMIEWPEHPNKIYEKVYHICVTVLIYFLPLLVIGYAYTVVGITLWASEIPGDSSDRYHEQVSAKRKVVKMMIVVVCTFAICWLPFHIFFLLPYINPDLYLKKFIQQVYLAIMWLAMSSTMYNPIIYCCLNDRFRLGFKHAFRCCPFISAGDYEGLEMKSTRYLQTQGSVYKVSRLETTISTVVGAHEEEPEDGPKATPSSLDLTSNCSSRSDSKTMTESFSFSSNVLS
Assay type: cell-based
O=C(OC[C@]1(c2ccccc2)CC[C@@H](N2CCC(c3ccc(F)cc3)CC2)CC1)c1cc(C(F)(F)F)cc(C(F)(F)F)c1 was tested, and the inhibition was 50%.

Each compound was assayed against T1, Substance-P receptor (assay: Displacement of [125I]-labeled substance P from the cloned Tachykinin receptor 1). Settings: not given.
With O=C(OC[C@]1(c2ccccc2)CC[C@H](N2CCC(c3ccc(F)cc3)CC2)CC1)c1cc(C(F)(F)F)cc(C(F)(F)F)c1 the IC50 was 120 nM. In the case of CC(C)(NC(=O)[C@]1(c2ccccc2)CC[C@@H](N2CCC(c3ccc(F)cc3)CC2)CC1)c1cc(C(F)(F)F)cc(C(F)(F)F)c1, the IC50 is reported as 0.62 nM. In the case of O=C(Cc1cc(C(F)(F)F)cc(C(F)(F)F)c1)N[C@]1(c2ccccc2)CC[C@H](N2CCC(c3ccc(F)cc3)CC2)CC1, the IC50 is reported as 0.7 nM. Compound Fc1ccc(C2CCN([C@H]3CC[C@@](CNCc4cc(C(F)(F)F)cc(C(F)(F)F)c4)(c4ccccc4)CC3)CC2)cc1 has an IC50 of 82 nM. Work on CC(C(=O)N[C@]1(c2ccccc2)CC[C@@H](N2CCC(c3ccc(F)cc3)CC2)CC1)c1cc(C(F)(F)F)cc(C(F)(F)F)c1 (mixture of isomers) yielded an IC50 of 0.63 nM. O=C(NC[C@]1(c2ccccc2)CC[C@H](N2CCC(c3ccc(F)cc3)CC2)CC1)c1cc(C(F)(F)F)cc(C(F)(F)F)c1 gave an IC50 of 6.3 nM. O=C(NC[C@]1(c2ccccc2)CC[C@@H](N2CCC(c3ccc(F)cc3)CC2)CC1)c1cc(C(F)(F)F)cc(C(F)(F)F)c1 gave an IC50 of 250 nM. CC(NC(=O)[C@]1(c2ccccc2)CC[C@@H](N2CCC(c3ccc(F)cc3)CC2)CC1)c1cc(C(F)(F)F)cc(C(F)(F)F)c1 (stereo in doubt; (+)-29a) was tested, and the IC50 was 0.35 nM. For Fc1ccc(C2CCN([C@H]3CC[C@](CNCc4cc(C(F)(F)F)cc(C(F)(F)F)c4)(c4ccccc4)CC3)CC2)cc1, the IC50 was 1.7 nM. In the case of CC(OC[C@]1(c2ccccc2)CC[C@@H](N2CCC(c3ccc(F)cc3)CC2)CC1)c1cc(C(F)(F)F)cc(C(F)(F)F)c1 (mixture of isomers), the IC50 is reported as 5.3 nM. Fc1ccc(C2CCN([C@H]3CC[C@@](COCc4cc(C(F)(F)F)cc(C(F)(F)F)c4)(c4ccccc4)CC3)CC2)cc1 showed an IC50 of 59 nM. With O=C(NCc1cc(C(F)(F)F)cc(C(F)(F)F)c1)C1(c2ccccc2)CCNCC1 the IC50 was 130 nM. Work on O=C(NCc1cc(C(F)(F)F)cc(C(F)(F)F)c1)[C@]1(c2ccccc2)CC[C@H](N2CCC(c3ccc(F)cc3)CC2)CC1 yielded an IC50 of 0.34 nM. Fc1ccc(C2CCN([C@H]3CC[C@](COCc4cc(C(F)(F)F)cc(C(F)(F)F)c4)(c4ccccc4)CC3)CC2)cc1 showed an IC50 of 4.2 nM. With O=C(OCc1cc(C(F)(F)F)cc(C(F)(F)F)c1)[C@]1(c2ccccc2)CC[C@H](N2CCC(c3ccc(F)cc3)CC2)CC1 the IC50 was 2.5 nM. Work on O=C(Cc1cc(C(F)(F)F)cc(C(F)(F)F)c1)N[C@]1(c2ccccc2)CC[C@@H](N2CCC(c3ccc(F)cc3)CC2)CC1 yielded an IC50 of 85 nM. CC(NC(=O)[C@]1(c2ccccc2)CC[C@@H](N2CCC(c3ccc(F)cc3)CC2)CC1)c1cc(C(F)(F)F)cc(C(F)(F)F)c1 (mixture of isomers) gave an IC50 of 0.77 nM. Work on CC(NC(=O)[C@]1(c2ccccc2)CC[C@@H](N2CCC(c3ccc(F)cc3)CC2)CC1)c1cc(C(F)(F)F)cc(C(F)(F)F)c1 (single isomer, unassigned; (-)) yielded an IC50 of 1.5 nM. O=C(NCc1cc(C(F)(F)F)cc(C(F)(F)F)c1)[C@]1(c2ccccc2)CC[C@@H](N2CCC(c3ccc(F)cc3)CC2)CC1 gave an IC50 of 150 nM. For O=C(N[C@]1(c2ccccc2)CC[C@@H](N2CCC(c3ccc(F)cc3)CC2)CC1)C(CO)c1cc(C(F)(F)F)cc(C(F)(F)F)c1 (mixture of isomers), the IC50 was 0.44 nM. O=C(OCc1cc(C(F)(F)F)cc(C(F)(F)F)c1)[C@]1(c2ccccc2)CC[C@@H](N2CCC(c3ccc(F)cc3)CC2)CC1 gave an IC50 of 140 nM. For CC(C)(C(=O)N[C@]1(c2ccccc2)CC[C@@H](N2CCC(c3ccc(F)cc3)CC2)CC1)c1cc(C(F)(F)F)cc(C(F)(F)F)c1, the IC50 was 0.49 nM. Compound Fc1ccc(C2CCN(C3CCC(CCCc4cc(C(F)(F)F)cc(C(F)(F)F)c4)(c4ccccc4)CC3)CC2)cc1 (mixture of isomers) has an IC50 of 40 nM. In the case of O=C(NC(CO)c1cc(C(F)(F)F)cc(C(F)(F)F)c1)[C@]1(c2ccccc2)CC[C@@H](N2CCC(c3ccc(F)cc3)CC2)CC1 (mixture of isomers), the IC50 is reported as 0.29 nM. OCC(OC[C@]1(c2ccccc2)CC[C@@H](N2CCC(c3ccc(F)cc3)CC2)CC1)c1cc(C(F)(F)F)cc(C(F)(F)F)c1 (mixture of isomers) was tested, and the IC50 was 0.75 nM.

These compounds were tested against T1, Substance-P receptor (assay: Tested for inhibitory concentration expressed as displacement of [125I]-labeled substance P from the cloned human Tachykinin receptor 1 expressed in CHO cells). Settings: not given.
Assay type: cell-based
In the case of FC(F)(F)c1cc(CO[C@H]2C3CCN(CC3)[C@H]2c2ccccc2)cc(C(F)(F)F)c1, the IC50 is reported as 0.2 nM.
